From article PMC2666046 (Bioorganic & medicinal chemistry letters, 2009)
Converted amounts (≈) assume the structure as drawn. Read-outs that look alike come from different tables or passages of the source.

Assays:
B. anthracis NADS = B. anthracis NADS (Bacillus anthracis, UniProt Q81RP3); assay: biochemical
[1] = tested on: Bacillus anthracis Sterne; assay: microbe, parasite or virus in culture; assay type: cell-based; conditions: read-out: B.a. MIC

Chain of B. anthracis NADS (Q81RP3 whole entry, looked up): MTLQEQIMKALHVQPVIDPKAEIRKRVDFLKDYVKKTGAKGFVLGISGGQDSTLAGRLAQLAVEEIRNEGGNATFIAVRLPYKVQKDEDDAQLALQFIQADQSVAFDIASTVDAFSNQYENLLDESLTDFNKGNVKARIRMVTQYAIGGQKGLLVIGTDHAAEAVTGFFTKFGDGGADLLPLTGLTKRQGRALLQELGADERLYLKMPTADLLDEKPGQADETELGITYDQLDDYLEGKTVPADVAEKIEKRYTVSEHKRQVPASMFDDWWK

`NC(=O)c1ccc(/N=C/c2cc([N+](=O)[O-])ccc2Cl)cc1` [Compound 5679] showed an IC50 (B. anthracis NADS) of 262 µM.

Work on `O=C(Nc1cccc(/N=C/c2cc([N+](=O)[O-])ccc2O)c1)c1ccc(Cl)cc1Cl` [Compound 5691] yielded an IC50 (B. anthracis NADS) of 106 µM.

For `O=C(Cn1cc(/C=C/c2[nH]c(=O)[nH]c(=O)c2[N+](=O)[O-])c2ccccc21)Nc1ccc(F)cc1` [Compound 5615], the IC50 (B. anthracis NADS) was 55.4 µM and the IC50 (B. anthracis NADS; read-out: NADs IC50) was 55.4 µM.

Work on `CCc1ccc(S(=O)(=O)Nc2c([N+](=O)[O-])ccc3ccccc23)cc1` [Compound 5599] yielded an MIC [1] of 3.75 µM (≈ 1.34 µg/mL).

In the case of `O=[N+]([O-])c1ccc(-c2cnc(N/N=C/c3cccc([N+](=O)[O-])c3)nc2)cc1` [Compound 5591], the IC50 (B. anthracis NADS) is reported as 160 µM.

With `COc1ccc(NC(=O)Nc2cccc(NC(=O)Nc3ccc(OC)cc3)c2F)cc1` [Compound 5707] the IC50 (B. anthracis NADS) was 253 µM.

With `N/C(=N\OC(=O)c1ccc(Cl)c(Cl)c1)c1cccc(CSc2ccccn2)c1` [Compound 5775] the IC50 (B. anthracis NADS) was 290 µM.
